Test results published in a melting point compilation (Tetko et al.; mined from patent text by program, amines drawn as free bases though some values may be those of a salt).

Compound	melting point [°C]
Cn1cc(-c2cc3cccnc3[nH]2)c2ccc(C(=O)NC(CO)CO)cc21	247 to 249
Clc1cnc2cc(Cl)c(Cl)cc2n1	137
CC(C)Cn1c(=O)n(C)c(=O)c2c(C/C=C/CC(=O)O)n(Cc3cccc4ccccc34)cc21	176 to 180
COC(=O)NNC(=S)Cc1ccc(Cl)cc1	148
CCOC(=O)c1cc2c(C)c([N+](=O)[O-])c(C)c(C)c2o1	126 to 128
CC(C(=O)O)c1ccc(Oc2ccc(F)cc2F)cc1 (centres undefined)	105 to 106
CC1(C)CC(N(c2nc(Cl)nc(N(C3CC(C)(C)N(O)C(C)(C)C3)C3CC(C)(C)N(O)C(C)(C)C3)n2)C2CC(C)(C)N(O)C(C)(C)C2)CC(C)(C)N1O	252 to 256
O=C1CCC(NC(=O)OC(=O)c2ccccc2)(C(=O)OCc2ccc([N+](=O)[O-])cc2)O1 (centres undefined)	127 to 128
Cc1c(O)c(O)cc2ccccc12	97 to 100
COc1cc(OC)nc(NC(=O)NS(=O)(=O)Nn2cccc2C(=O)C(F)(F)F)n1	145 to 147
CN(C)C1(c2cccc(F)c2)CCC(c2[nH]c3ccccc3c2CCc2ccncc2)CC1 (centres undefined)	301 to 314
CSc1c(S)c(SC)c(SC)c(SC)c1SC	60
COCCOc1ccc(OCC(O)CNCCOc2ccc(OC)cc2)c(C#N)c1 (centres undefined)	95 to 97
O=C1Nc2ccc(F)cc2C12COc1cc3c(cc12)CCO3 (centres undefined)	257 to 259
CC1Oc2c(C(=O)[NH+]([O-])C3CN4CCC3CC4)cc(Cl)cc2N(C)C1=O (centres undefined)	188 to 190
OCC12CC3CC(CC(C3)C1O)C2 (centres undefined)	172 to 174
COc1ccc(C2=C(C#N)C(c3ccccc3Cl)c3c[nH]nc3N2)cc1 (centres undefined)	124
CCOC(=O)Cc1c(C)n(Cc2ccc(SC)cc2)c2ccc(OCc3nc4ccccc4s3)cc12	101 to 102
Cc1ccn(-c2ccc(C)c(C(=O)c3cccc4c3Nc3ncccc3CN4)c2)n1	138 to 140
COc1ccc2c(c1CNC(=O)OCC1c3ccccc3-c3ccccc31)Oc1c(ccc(OC)c1CC(=O)O)C2(C)C	134 to 136
CCN1C(=O)COc2ccc(-c3sc(N)nc3-c3cccc(C)n3)cc21	228 to 230
CC(CCCO[Si](C)(C)C(C)(C)C)C1CCC2C3=CC=C4C(C)(C)C(O[Si](C)(C)C(C)(C)C)CCC4(C)C3CCC21C (centres undefined)	98 to 106
CC(=O)N(C)c1cc(OCc2ccccc2)c2nc(C)n(C)c2c1	144 to 149
CNC(=O)C(Cc1ccc([N+](=O)[O-])cc1)NC(=O)Nc1n[nH]c(=S)s1 (centres undefined)	228 to 230
CCCc1c(OCCCSc2c(C(C)C)nn3ccccc23)ccc(C(C)=O)c1O	95 to 95.5

Compound	melting point [°C]
Cc1nn(C)c2c1Nc1ncccc1N(C)C2=O	141 to 142
COc1ccccc1-c1ccc(S(N)(=O)=O)c(N)c1	219 to 221
CC12CC(F)C3C4CCC(=O)C=C4CC(CCCCCCl)C3C1CCC2=O (centres undefined)	51 to 53
CS(=O)(=O)c1ccc(C(CC2CCCC2)C(=O)Nc2cnc(CC#N)cn2)cc1Cl (centres undefined)	79 to 82
CC(C)C(=O)Nc1c(C(=O)c2occc2CO)[nH]c2cc(Cl)ccc12	170 to 171
C=CCN1C(=O)C[N+]([O-])=C(c2ccccc2F)c2cc(Cl)ccc21	183
O=c1c(CCCc2nccs2)cc2cccnc2n1-c1cccc([N+](=O)[O-])c1	198 to 199
CN1C(=O)C2(CCCC2(C)C)c2ccccc21 (centres undefined)	99 to 101
N=C(N)c1ccc(C(=O)N[C@@H](Cc2ccccc2)C(=O)c2ccc(OCC(=O)O)cc2)cc1	> 200
N#CCOc1nsc2ccc([N+](=O)[O-])cc12	123 to 124
CCOc1cc(-c2cc(C(F)(F)F)n3ncc(C(=O)Nc4nc(C)c(S(=O)(=O)NC(C)(CO)CO)s4)c3n2)ccc1C(F)(F)F	220
CCCCCCCCCCCCCCCCCCN1C(=O)CC(c2cc(C(C)(C)C)c(O)c(C(C)(C)C)c2)C1=O (centres undefined)	70 to 73
CC(C)(C)c1ccc(C(N)=O)cc1[N+](=O)[O-]	114 to 115
N#Cc1ccc(OCCCCCCl)cc1	47
C[C@H]1CCCN(C(=O)[C@@H]2Cc3ccccc3N2c2ccc(=S)n(C)n2)C1	249 to 252
Nc1c(Cl)c(Oc2ccccc2)nc(C(=O)O)c1Cl	158 to 160
CC(=O)Nc1ccc2c3c1c(=O)c(C(=O)O)cn3C(C)CC2 (centres undefined)	277 to 279
O=c1[nH]c2cc(C(F)(F)F)ccc2n1C1CCNCC1	198
Cc1c(C)c2ccc(OCCCN3CCC(NC(=O)c4ccc(N)cc4)CC3)cc2oc1=O	242 to 245
O=c1c2nc(Br)n(Cc3ccccc3)c2ncn1Cc1ccccc1	161 to 162
CN1C(=O)N(C)C(=O)C2(CC=C3C(CCC4=Cc5c(cnn5-c5ccc(F)cc5)CC43C)O2)C1=O (centres undefined)	188 to 189
NC(=O)N1CCN(c2nn(-c3ccc(F)cc3)c3ccccc23)CC1	148 to 150
CC(=O)SC(C)C(Cc1ccccc1)C(=O)Nc1cccc(C(=O)O)c1 (centres undefined)	180 to 182
OC(c1ccccc1)c1ccc(Nc2nccc(-c3cnc4ccccn34)n2)cc1 (centres undefined)	213 to 216
